According to paper PMC6299220 (mBio, 2018):
Converted amounts (≈) assume the structure as drawn. Read-outs that look alike come from different tables or passages of the source.

Assays:
[1] = physchem; conditions: pH 7.4, aqueous buffer, kinetic from dmso stock
[2] = test system: M. tuberculosis H37Rv; experiment: microbe, parasite or virus in culture; type: cell-based, Mycobacterium tuberculosis
[3] = mouse, microsomes
[4] = in vitro; conditions: mouse, microsomes
[5] = in vitro; conditions: African green monkey
[6] = Mouse liver microsomal (MLM) stability; conditions: mouse, liver microsomes
[7] = target: KasA (Mycobacterium tuberculosis, UniProt P9WQD9); experiment: Microscale thermophoresis (MST) binding assay; conditions: 49.5 nM labeled KasA
[8] = Mycobacterium tuberculosis, H37RV
[9] = MLM stability t1/2 without NADPH

KasA, sequence (P9WQD9 whole entry): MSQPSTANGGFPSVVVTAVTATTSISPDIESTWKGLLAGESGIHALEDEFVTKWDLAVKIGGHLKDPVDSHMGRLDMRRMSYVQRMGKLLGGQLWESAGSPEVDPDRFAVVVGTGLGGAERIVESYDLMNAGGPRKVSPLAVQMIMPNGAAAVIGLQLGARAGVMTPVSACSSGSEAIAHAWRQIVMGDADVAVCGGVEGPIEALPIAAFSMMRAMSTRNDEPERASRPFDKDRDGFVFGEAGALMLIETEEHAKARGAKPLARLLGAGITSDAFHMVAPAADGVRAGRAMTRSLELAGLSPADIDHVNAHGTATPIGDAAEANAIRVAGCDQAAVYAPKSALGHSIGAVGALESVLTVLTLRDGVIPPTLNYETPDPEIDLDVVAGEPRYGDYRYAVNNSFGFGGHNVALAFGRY

Structure (SMILES) | MIC [2, 8] | CC50 [5] | other results
CCCCS(=O)(=O)Nc1ccc2cnn(CC)c2c1 [5a-3, N-(1-Ethyl-1H-indazol-6-yl)butane-1-sulfonamide] | 6.2 µM (≈ 1.74 µg/mL) | 44.4 µM | solubility kinetic [1]: 472 µM (≈ 133 µg/mL); MLM stability clint [3]: 536 μl/mi/mg protein; half-life ([4]; MLM stability t1/2): 1.29 min; half-life [4, 9]: > 3060 min
CCCCS(=O)(=O)Nc1ccc2cnn(CCC)c2c1 [5a-4, N-(1-Propyl-1H-indazol-6-yl)butane-1-sulfonamide] | > 100 µM | – | solubility kinetic [1]: 130 µM (≈ 38.4 µg/mL); MLM stability clint [3]: 921 μl/mi/mg protein; half-life ([4]; MLM stability t1/2): 0.753 min; half-life [4, 9]: > 3060 min
CCCCS(=O)(=O)Nc1ccc2cnn(C(C)C)c2c1 [5a-5, N-(1-Isoproply-1H-indazol-6-yl)butane-1-sulfonamide] | > 100 µM | – | solubility kinetic [1]: > 500 µM; MLM stability clint [3]: 789 μl/mi/mg protein; half-life ([4]; MLM stability t1/2): 0.878 min; half-life [4, 9]: > 3060 min
CCCCS(=O)(=O)Nc1ccc2cnn(-c3ccccc3)c2c1 [5a-6, N-(1-Phenyl-1H-indazol-6-yl)butane-1-sulfonamide] | > 100 µM | – | solubility kinetic [1]: 33.7 µM (≈ 11.1 µg/mL); MLM stability clint [3]: 1,370 μl/mi/mg protein; half-life ([4]; MLM stability t1/2): 0.505 min; half-life [4, 9]: > 3060 min
CCCCS(=O)(=O)Nc1ccc2cnn(Cc3ccccc3)c2c1 [5a-7, N-(1-Benzyl-1H-indazol-6-yl)butane-1-sulfonamide] | > 100 µM | – | solubility kinetic [1]: 33.8 µM (≈ 11.6 µg/mL); MLM stability clint [3]: 241 μl/mi/mg protein; half-life ([4]; MLM stability t1/2): 2.88 min; half-life [4, 9]: > 3060 min
Cn1ncc2ccc(NS(C)(=O)=O)cc21 [5a-8, N-(1-Methyl-1H-indazol-6-yl)methanesulfonamide] | > 100 µM | – | –
CCS(=O)(=O)Nc1ccc2cnn(C)c2c1 [5a-9, N-(1-Methyl-1H-indazol-6-yl)ethanesulfonamide] | > 100 µM | – | –
CCCS(=O)(=O)Nc1ccc2cnn(C)c2c1 [5a-10, N-(1-Methyl-1H-indazol-6-yl)propane-1-sulfonamide] | 12.5 µM (≈ 3.17 µg/mL) | – | –
CC(C)S(=O)(=O)Nc1ccc2cnn(C)c2c1 [5a-11, N-(1-Methyl-1H-indazol-6-yl)propane-2-sulfonamide] | > 100 µM | – | –
CCCCCS(=O)(=O)Nc1ccc2cnn(C)c2c1 [5a-12, N-(1-Methyl-1H-indazol-6-yl)pentane-1-sulfonamide] | 0.2 µM (≈ 0.0563 µg/mL) | > 100 µM | improvement in MIC/whole-cell activity over DG167 [2]: 2 fold
CCCCCCS(=O)(=O)Nc1ccc2cnn(C)c2c1 [5a-13, N-(1-Methyl-1H-indazol-6-yl)hexane-1-sulfonamide] | > 100 µM | > 170 µM | –
Cn1ncc2ccc(NS(=O)(=O)CCCCC#N)cc21 [5a-14, 4-Cyano-N-(1-methyl-1H-indazol-6-yl)butane-1-sulfonamide] | 3.1 µM (≈ 0.906 µg/mL) | > 100 µM | –
COCCCCS(=O)(=O)Nc1ccc2cnn(C)c2c1 [5a-15, 4-Methoxy-N-(1-methyl-1H-indazol-6-yl)butane-1-sulfonamide] | > 100 µM | > 100 µM | MIC [2]: >100 µM
COCCC(C)CCS(=O)(=O)Nc1ccc2cnn(C)c2c1 (centres unmarked) [5a-16, 5-Methoxy-3-methyl-N-(1-methyl-1H-indazol-6-yl)pentane-1-sulfonamide] | > 100 µM | – | –
CCCC(CC)S(=O)(=O)Nc1ccc2cnn(C)c2c1 (centres unmarked) [5a-17, N-(1-Methyl-1H-indazol-6-yl)hexane-3-sulfonamide] | > 100 µM | > 100 µM | –
CCCC(C)S(=O)(=O)Nc1ccc2cnn(C)c2c1 (centres unmarked) [5a-18, N-(1-Methyl-1H-indazol-6-yl)pentane-2-sulfonamide] | > 100 µM | > 100 µM | –
CC(C)CCCS(=O)(=O)Nc1ccc2cnn(C)c2c1 [5a-19, 4-Methyl-N-(1-methyl-1H-indazol-6-yl)pentane-1-sulfonamide] | > 100 µM | – | –
Cc1ccc(S(=O)(=O)Nc2ccc3cnn(C)c3c2)cc1 [5a-20, 4-Methyl-N-(1-methyl-1H-indazol-6-yl)benzenesulfonamide] | 50 µM (≈ 15.1 µg/mL) | – | –
Cn1ncc2ccc(NS(=O)(=O)Cc3ccccc3)cc21 [5a-21, N-(1-Methyl-1H-indazol-6-yl)-1-phenylmethanesulfonamide] | > 100 µM | – | –
Cn1ncc2ccc(NS(=O)(=O)CCc3ccccc3)cc21 [5a-22, N-(1-Methyl-1H-indazol-6-yl)-2-phenylethane-1-sulfonamide] | > 100 µM | 19.8 µM | –
Cn1ncc2ccc(NS(=O)(=O)C3CC3)cc21 [5a-23, N-(1-Methyl-1H-indazol-6-yl)cyclopropanesulfonamide] | > 100 µM | – | –
Cn1ncc2ccc(NS(=O)(=O)C3CCC3)cc21 [5a-24, N-(1-Methyl-1H-indazol-6-yl)cyclobutanesulfonamide] | > 100 µM | – | –
Cn1ncc2ccc(NS(=O)(=O)C3CCCC3)cc21 [5a-25, N-(1-Methyl-1H-indazol-6-yl)cyclopentanesulfonamide] | > 100 µM | – | –

Structure (SMILES) | MIC [2, 8] | CC50 [5] | other results
Cn1ncc2ccc(NS(=O)(=O)C3CCCCC3)cc21 [5a-26, N-(1-Methyl-1H-indazol-6-yl)cyclohexanesulfonamide] | 12.5 µM (≈ 3.67 µg/mL) | – | –
Cn1ncc2ccc(NS(=O)(=O)C3CCC(C(F)(F)F)CC3)cc21 (centres unmarked) [5a-27, N-(1-Methyl-1H-indazol-6-yl)-4-(trifluoromethyl)cyclohexane-1-sulfonamide] | > 100 µM | – | –
Cn1ncc2ccc(NS(=O)(=O)N3CCCCC3)cc21 [5a-28, N-(1-Methyl-1H-indazol-6-yl)piperidine-1-sulfonamide] | > 100 µM | – | –
Cn1ncc2ccc(NS(=O)(=O)CC3CCCCC3)cc21 [5a-29, 1-Cyclohexyl-N-(1-methyl-1H-indazol-6-yl)methanesulfonamide] | > 100 µM | – | –
[2H]C([2H])([2H])n1ncc2ccc(NS(=O)(=O)CCCC)cc21 [5a-30, N-(1-(Methyl-d3)-1H-indazol-6-yl)butane-1-sulfonamide] | – | 180 µM | solubility kinetic [1]: > 500 µM; MLM stability clint [3]: 41.3 μl/mi/mg protein; half-life [4]: 16.8 min; half-life [4, 9]: > 3060 min
[2H]C([2H])([2H])n1ncc2ccc(NS(=O)(=O)CCCCC)cc21 [5a-31, N-(1-(Methyl-d3)-1H-indazol-6-yl)pentane-1-sulfonamide] | 0.2 µM (≈ 0.0569 µg/mL) | > 100 µM | improvement in MIC/whole-cell activity over DG167 [2]: 2 fold
[2H]C([2H])([2H])n1ncc2ccc(NS(=O)(=O)CCCCOC)cc21 [5a-32, 4-Methoxy-N-(1-(methyl-d3)-1H-indazol-6-yl)butane-1-sulfonamide] | > 100 µM | > 100 µM | –
CCCCNC(=S)Nc1ccc2cnn(C)c2c1 [5b-1, 1-Butyl-3-(1-methyl-1H-indazol-6-yl)thiourea] | 3.1 µM (≈ 0.813 µg/mL) | 25 µM | solubility kinetic [1]: 131 µM (≈ 34.4 µg/mL); MLM stability clint [3]: 595 μl/mi/mg protein; half-life ([4]; MLM stability t1/2): 1.17 min; half-life [4, 9]: > 3060 min
CCCCNC(=O)Nc1ccc2cnn(C)c2c1 [5b-2, 1-Butyl-3-(1-methyl-1H-indazol-6-yl)urea] | > 100 µM | – | –
CCC(=O)Nc1ccc2cnn(C)c2c1 [5c-1, N-(1-methyl-1H-indazol-6-yl)propionamide] | > 100 µM | – | solubility kinetic [1]: 472 µM (≈ 95.9 µg/mL); MLM stability clint [3]: 536 μl/mi/mg protein; half-life ([4]; MLM stability t1/2): 1.29 min
CCCCC(=O)Nc1ccc2cnn(C)c2c1 [5c-2, N-(1-Methyl-1H-indazol-6-yl)pentanamide] | > 100 µM | – | solubility kinetic [1]: > 500 µM; MLM stability clint [3]: 1,040 μl/mi/mg protein; half-life ([4]; MLM stability t1/2): 0.668 min; half-life [4, 9]: 13.1 min
CCOC(=O)Nc1ccc2cnn(C)c2c1 [5d-1, Ethyl (1-methyl-1H-indazol-6-yl)carbamate] | > 100 µM | 110 µM | solubility kinetic [1]: > 500 µM; MLM stability clint [3]: 597 μl/mi/mg protein; half-life ([4]; MLM stability t1/2): 1.16 min
CCCOC(=O)Nc1ccc2cnn(C)c2c1 [5d-2, n-propyl (1-methyl-1H-indazol-6-yl)carbamate] | > 100 µM | 6.7 µM | –
CCCCOC(=O)Nc1ccc2cnn(C)c2c1 [5d-3, Butyl (1-methyl-1H-indazol-6-yl)carbamate] | > 100 µM | 25 µM | –
CCCCS(=O)(=O)N(C)c1ccc2cnn(C)c2c1 [5e, N-Methyl-N-(1-methyl-1H-indazol-6-yl)butane-1-sulfonamide] | > 100 µM | – | –
CCCCS(=O)(=O)Nc1ccc2[nH]nc(C)c2c1 [5g, N-(3-Methyl-1H-indazol-5-yl)butane-1-sulfonamide] | 0.2 µM (≈ 0.0535 µg/mL) | 94 µM | half-life ([6]; MLM stability t1/2, with NADPH): 11.5 min; half-life ([6]; MLM stability t1/2 without NADPH, without NADPH): 141 min; improvement in MIC/whole-cell activity over DG167 [2]: 2 fold; MLM stability clint [3]: 60.3 μl/mi/mg protein; Kd [7]: 0.0465 ± 0.0187 µM
COc1nc2ccc(Br)cc2cc1[C@@H](c1ccccc1)[C@@](O)(CCN(C)C)c1cccc2ccccc12 [BDQ, bedaquiline] | 1 µM (≈ 0.556 µg/mL) | – | –
CC[C@@H](CO)NCCN[C@@H](CC)CO [EMB, ethambutol] | 0.78 µM (≈ 0.159 µg/mL) | – | –
CCc1cc(C(N)=S)ccn1 [ETH, ethionamide] | 25 µM (≈ 4.16 µg/mL) | – | –
COc1c(N2C[C@@H]3CCCN[C@@H]3C2)c(F)cc2c(=O)c(C(=O)O)cn(C3CC3)c12 [Moxi, moxifloxacin] | 0.03 µM (≈ 0.012 µg/mL) | – | –
O=[N+]([O-])c1cn2c(n1)OC[C@@H](OCc1ccc(OC(F)(F)F)cc1)C2 [PA824] | 0.1 µM (≈ 0.0359 µg/mL) | – | –
CO[C@H]1/C=C/O[C@@]2(C)Oc3c(C)c(O)c4c(O)c(c(/C=N/N5CCN(C)CC5)c(O)c4c3C2=O)NC(=O)/C(C)=C\C=C\[C@H](C)[C@H](O)[C@@H](C)[C@@H](O)[C@@H](C)[C@H](OC(C)=O)[C@@H]1C [RIF, rifampin] | 0.001 µM (≈ 0.000823 µg/mL) | – | –
CC(C)=CCC/C(C)=C/CNCCNC1C2CC3CC(C2)CC1C3 (centres unmarked) [SQ109] | 0.8 µM (≈ 0.264 µg/mL) | – | –
